The values that follow come from patent publication US5134140A, “Psychotropic benzofuran derivatives” (American Home Products Corporation, priority 1991, dated 1992).

One assay concerns the target T1, dopamine D2 receptor (Rattus norvegicus, UniProt P61169).
T1 construct: from tissue; host or cells: homogenized limbic brain tissue
Kind of assay: D-2 binding, 3H-spiroperidol, homogenized limbic brain tissue. As for the experimental part:
Modest affinity for the dopamine D2 receptor was established by the standard experimental test procedure of Fields, et al., Brain Res., 136, 578 (1977) and Yamamura et al., eds., Neurotransmitter Receptor Binding, Raven Press, N.Y. (1978) wherein homogenized limbic brain tissue is incubated with ^3 H-spiroperidol and various concentrations of test compound, filtered and washed and shaken with Hydrofluor scintillation cocktail (National Diagnostics) and counted in a Packard 460 CD scintillation counter.

Assay [1] deals with T2, serotonin 5-HT1A receptor (Rattus norvegicus, UniProt P19327).
T2 construct: following the procedure of Hall et al., J. Neurochem; 44, 1685 (1985); from tissue
T2 sequence (P19327 1-422): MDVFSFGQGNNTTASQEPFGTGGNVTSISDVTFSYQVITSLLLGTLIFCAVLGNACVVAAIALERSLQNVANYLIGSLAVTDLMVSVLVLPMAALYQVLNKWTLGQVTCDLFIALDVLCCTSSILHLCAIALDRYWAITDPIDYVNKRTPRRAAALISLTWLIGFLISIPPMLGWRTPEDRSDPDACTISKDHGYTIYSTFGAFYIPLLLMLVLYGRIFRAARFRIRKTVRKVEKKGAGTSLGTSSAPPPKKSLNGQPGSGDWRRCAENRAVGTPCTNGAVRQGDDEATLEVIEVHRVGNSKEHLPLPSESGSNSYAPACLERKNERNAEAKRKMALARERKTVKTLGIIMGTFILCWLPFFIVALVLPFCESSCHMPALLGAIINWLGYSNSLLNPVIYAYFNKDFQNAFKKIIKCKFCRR
Kind of assay: 5-HT1A binding, displacement of [3H] 8-OHDPAT. The source says:
High affinity for the serotonin 5-HT1A receptor was established by testing the claimed compound's ability to displace [^3 H] 8-OHDPAT (dipropylaminotetralin) from the 5-HT1A serotonin receptor following the procedure of Hall et al., J. Neurochem. 44, 1685 (1985). […] The anxiolytic activity of buspirone is believed to be, at least partially, due to its 5-HT1A receptor affinity (Vander Maclen et al., Eur. J. Pharmacol. 1986, 129 (1-2) 133-130).

The subject of a further assay is 5-HT1A receptor. The following applies: cited from earlier work.
For a further assay, the system named is serotonin syndrome. Kind of assay: ability to produce or antagonize the serotonin syndrome in rats. The format is in vivo, male Sprague-Dawley CD rats. The following applies: for ED50: Rattus norvegicus. As for the experimental part:
Certain of the compounds of this invention were also compared to buspirone in their ability to either produce or antagonize the serotonin syndrome according to the procedure of Smith and Peroutka, Pharmacol. Biochem. Behav. 24:1513-1519, 1986, in which 250-350 g male Sprague-Dawley CD rats (Charles River) are given either test compound or vehicle and placed individually into plexiglass observation cages. Agonist activity of the compound is determined by scoring for the presence of the serotonin syndrome (forepaw treading, head weaving, tremor, hindlimb abduction, flattened body posture, and Straub tail) during the first 15 minutes after compound administration. Antagonist activity is then determined by a challenge with either of the 5-HT1A agonists 5-methoxy-N,N-dimethyltryptamine (5-MeODMT) or 8-hydroxydipropylaminotetralin.

Assay [2] concerns the target T2, serotonin 5-HT1A receptor. The following applies: buspirone standard; cited from earlier work.
Where [3] appears, read: antagonist activity, challenge with 5-MeODMT or 8-hydroxydipropylaminotetralin, agonist not specified for these values, read-out: ED50, antagonize the serotonin syndrome.

Structures are written as SMILES. Entries after “also recorded” stand apart in the source; their conditions may differ. Like-named read-outs stand apart in the source and are kept apart here.

T1 sequence (P61169 whole entry): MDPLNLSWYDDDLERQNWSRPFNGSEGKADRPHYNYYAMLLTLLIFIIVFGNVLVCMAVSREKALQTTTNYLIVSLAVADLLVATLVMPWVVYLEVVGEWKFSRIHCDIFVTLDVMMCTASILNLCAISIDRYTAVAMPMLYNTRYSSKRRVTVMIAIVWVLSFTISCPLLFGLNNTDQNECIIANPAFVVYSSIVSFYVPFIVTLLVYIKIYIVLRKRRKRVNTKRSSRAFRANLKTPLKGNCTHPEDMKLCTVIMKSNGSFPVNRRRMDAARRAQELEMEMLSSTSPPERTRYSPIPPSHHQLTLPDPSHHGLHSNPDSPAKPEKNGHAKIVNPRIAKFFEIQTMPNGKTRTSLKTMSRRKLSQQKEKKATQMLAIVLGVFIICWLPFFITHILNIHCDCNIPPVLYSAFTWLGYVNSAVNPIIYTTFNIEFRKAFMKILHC

A word on the inhibition: it is how much of the control response was suppressed. A low value points to a weak effect. Regarding `COc1cccc2cc(CNCCNC(=O)C34CCC(CC3=O)C4(C)C)oc12` (single isomer, unassigned) [Example 5, N-[2-[[(7-Methoxy-2-benzofuranyl)methyl]amino]ethyl]-7,7-dimethyl-2-oxobicyclo[2.2.1]heptane-1-carboxamide], 1 µM produced 4% inhibition on dopamine D2 receptor. The compound further returned an inhibition at 0.1 µM in assay [1] of 87%.

As to `O=C1CC2(CCCC2)CC(=O)N1CCCCNCC1COc2ccccc2O1` (single isomer, unassigned; (-)) [(-)-MDL 72832], in the assay on 5-HT1A receptor ((-)-isomer vs dextrorotary isomer), the “binding at the 5-HT1A receptor site relative to the dextrorotary isomer” value is recorded as 32 times.

The compound `COc1cccc2cc(CNCCN3C(=O)C4C5C=CC(C6C=CC65)C4C3=O)oc12` (stereo not shown) [Example 1, 3a, 4,4a, 6a, 7,7a-Hexahydro-2-[2-[[(7-methoxy-2-benzofuranyl)methyl]amino]ethyl]-4,7-etheno-1H-cyclobut[f]isoindole-1,3(2H)-dione] yielded an inhibition at 0.1 µM in assay [1] of 31%.

A word on the IC50: it is the concentration at which inhibition is half-maximal. As a reminder, the ED50 is the dose that gives a 50% effect, or the effect in half of the subjects. The compound `COc1cccc2cc(CNCCNC(=O)C34CC5CC(CC(C5)C3)C4)oc12` [Example 2, N-[2-[[(7-Methoxy-2-benzofuranyl)methyl]amino]ethyl]tricyclo[3.3.1.1^3,7]decane-1-carboxamide] had an inhibition at 1 µM at dopamine D2 receptor of 29%. In assay [1], this compound yielded an IC50 of 0.5 nM and an inhibition at 0.1 µM of 100%. In the assay with serotonin syndrome (setting [3]), the ED50 is 11.7 mg/kg.

On dopamine D2 receptor, `COc1cccc2cc(CNCCN3C(=O)CC4(CCCC4)CC3=O)oc12` [Example 3, 8-[2-[[(7-Methoxy-2-benzofuranyl)methyl]amino]ethyl]-8-azaspiro[4.5]decane-7,9-dione] showed an inhibition at 1 µM of 72%. This compound returned an inhibition at 0.1 µM in assay [1] of 61%.

As to `COc1cccc2cc(CNCCN3C(=O)C4CC(C3=O)C3C4C4C5CC6C4C6C53)oc12` (stereo not shown) [Example 4, Decahydro-3-[2-[[(7-methoxy-2-benzofuranyl)methyl]amino]ethyl]-1,5-methano-6,7,9-metheno-2H-pentaleno[1,2-d]azepine-2,4(3H)-dione], on dopamine D2 receptor, the inhibition at 1 µM is 49%. Moreover, in assay [1], at 0.1 µM the inhibition was 59%.

Regarding `COc1cccc2cc(CNCCNC(=O)c3ccc(F)cc3)oc12` [Example 6], the inhibition at 1 µM at dopamine D2 receptor stood at 70%. The same compound gave an inhibition at 0.1 µM in assay [1] of 87%.

In assay [1], `COc1cccc2cc(CNCCNC(=O)C34CC5CC(CC3C5)C4)oc12` [Example 7, N-[2-[[(7-Methoxy-2-benzofuranyl)methyl]amino]ethyl]hexahydro-2,5-methanopentalene-3a(1H)-carboxamide] showed an inhibition at 0.1 µM of 99%. Moreover, the median effective dose (ED50) in the assay on serotonin syndrome (setting [3]) came to 15.4 mg/kg.

As to `COc1cccc2cc(CNCCNC(=O)C3(C)CCCCC3)oc12` [Example 8, N-[2-[[(7-Methoxy-2-benzofuranyl)methyl]amino]ethyl]-1-methyl-1-cyclohexanecarboxamide], testing at 0.1 µM in assay [1] gave an inhibition of 92%.

In assay [1], `COc1ccc2cc(CNCCNC(=O)C34CC5CC(CC(C5)C3)C4)oc2c1OC` [Example 9, N-[2-[[(6,7-Dimethoxy-2-benzofuranyl)methyl]amino]ethyl]tricyclo[3.3.1.1^3,7]decane-1-carboxamide] gave an inhibition at 0.1 µM of 63%.

In assay [1], `COc1cccc2cc(CN(C)CCNC(=O)C34CC5CC(CC(C5)C3)C4)oc12` [Example 10, N-[2-[[(7-Methoxy-2-benzofuranyl)methyl]methylamino]ethyl]tricyclo[3.3.1.1^3,7]decane-1-carboxamide] displayed an IC50 of 9 nM and an inhibition at 0.1 µM of 90%.

Take `COc1cccc2cc(CNCCNC(=O)C(C)(C)C)oc12` [Example 11, N-[2-[[(7-Methoxy-2-benzofuranyl)methyl]amino]ethyl]-2,2-dimethylpropanamid]: the inhibition at 0.1 µM in assay [1] came out at 38%.

Compound `O=C(NCCNCc1cc2ccc(OCc3ccccc3)cc2o1)C12CC3CC(CC(C3)C1)C2` [Example 12, N-[2-[[(6-Phenylmethoxy-2-benzofuranyl)methyl]amino]ethyl]tricyclo[3.3.1.1^3,7]decane-1-carboxamide] yielded an inhibition at 0.1 µM in assay [1] of 20%.

For the compound `O=C(NCCNCc1cc2cccc(F)c2o1)C12CC3CC(CC(C3)C1)C2` [Example 13, N-[2-[[(7-Fluoro-2-benzofuranyl)methyl]amino]ethyl]tricyclo[3.3.1.1^3,7]decane-1-carboxamide], the inhibition at 0.1 µM in assay [1] stood at 95%.

In assay [1], `O=C(NCCNCc1cc2cc(O)ccc2o1)C12CC3CC(CC(C3)C1)C2` [Example 15, N-[2-[[(5-Hydroxy-2-benzofuranyl)methyl]amino]ethyl]tricyclo[3.3.1.1^3,7]decane-1-carboxamide] had an inhibition at 0.1 µM of 64%.

For `O=C(NCCNCc1cc2cccc(Cl)c2o1)C12CC3CC(CC(C3)C1)C2` [Example 16, N-[2-[[(7-Chloro-2-benzofuranyl)methyl]amino]ethyl]tricyclo[3.3.1.1^3,7]decane-1-carboxamide], 0.1 µM produced 97% inhibition in assay [1].

`O=C(NCCNCc1cc2ccc(O)cc2o1)C12CC3CC(CC(C3)C1)C2` [Example 17, N-[2-[[(6-Hydroxy-2-benzofuranyl)methyl]amino]ethyl]tricyclo[3.3.1.1^3,7]decane-1-carboxamide] had an inhibition at 0.1 µM in assay [1] of 88%.

In the case of `O=C1CC2(CCCC2)CC(=O)N1CCCCNCC1COc2ccccc2O1` (stereo not shown) [MDL 72832, 8-[4-(1,4-benzodioxan-2-ylmethylamino)butyl]-8-azaspiro[4.5]decane-7,9-dione], in the assay on 5-HT1A receptor, the “5-HT1A receptor ligand character (in words)” value was “selective and stereospecific”.

Consider `O=C1CC2(CCCC2)CC(=O)N1CCCCN1CCN(c2ncccn2)CC1` [buspirone], for which the ED50 in the assay with serotonin syndrome (0.25 h, agonist activity, first 15 minutes after administration, read-out: ED50, produced the serotonin syndrome) turned out to be 7.3 mg/kg; in the assay on serotonin syndrome (antagonist activity, challenge with 5-MeODMT, read-out: ED50, antagonized 5-MeODMT-induced syndrome), 4.6 mg/kg. In addition, in the assay on serotonin syndrome (in words), the “characterization in the serotonin syndrome test” value was “partial agonist”. Moreover, the “affinity for the serotonin 5-HT1A receptor (in words)” value in assay [2] is given as “high affinity; also recorded: potent affinity”.
